# According to patent US20240300958A1, “COMPOUNDS AND THE USES AND PHARMACEUTICAL COMPOSITIONS THEREOF” (BEIJING YOUZHUJU NETWORK TECHNOLOGY CO. LTD., priority 2023, published 2024):
# Read-outs that look alike come from different tables or passages of the source.
# Assays:
# Test in all cases: Kinase inhibition profile (HTRF / ADP Glo kinase assay)
# Assay type in all cases: biochemical
# [1] = target: AXL (Homo sapiens (Human), UniProt P30530)
# Procedure: (§1) HTRF kinase assay: 2×ATP and substrate solution as well as 2× kinase and metal solution were prepared with assay buffer. 25 nL of compound was transferred to 384-well assay plate by Echo 655. After centrifugation, 2.5 μL of 2× kinase/metal ion solution was added to the 384-well assay plate followed by incubation at 25° C. for 10 min. 2.5 μL of 2× substrate and ATP solution was added to the wells followed by incubation at 25° C. for 60 min. 2× XL665 and antibody solution was prepared with assay buffer. 5 μL of kinase detection reagent was added to the wells followed by incubation at 25° C. for 60 min. Fluorescence signals at 620 nm (Cryptate) and 665 nm (XL665) were read with a microtiter plate reader. ADP Glo kinase assay: 2×ATP and substrate solution as well as 2× kinase and metal solution were prepared with assay buffer. 20 nL of compound was transferred to 384-well assay plate by Echo 655. 2 μL of 2× kinase/metal ion solution was added followed by incubation at 25° C. for 10 min in the 384-well assay plate. 2 μL of 2× substrate and ATP solution was added to the wells followed by incubation at 25° C. for 60 min. 4 μL of ADP Glo reagent was added to the wells followed by incubation at 25° C. for 40 min. 8 μL of kinase test reagent was added to the wells followed by incubation at 25° C. for 40 min. The luminescence signals were recorded on a microtiter plate reader. Data analysis: the reaction control (0.5% DMSO) reading was set to 0% inhibition, and the background (10 μM positive control) reading was set to 100% inhibition, then the percent inhibition for each test solution was calculated and the results are shown in Table 2 and FIG. 3.
# [2] = target: AurB (Homo sapiens (Human), UniProt Q96GD4)
# AurB, sequence (Q96GD4 whole entry): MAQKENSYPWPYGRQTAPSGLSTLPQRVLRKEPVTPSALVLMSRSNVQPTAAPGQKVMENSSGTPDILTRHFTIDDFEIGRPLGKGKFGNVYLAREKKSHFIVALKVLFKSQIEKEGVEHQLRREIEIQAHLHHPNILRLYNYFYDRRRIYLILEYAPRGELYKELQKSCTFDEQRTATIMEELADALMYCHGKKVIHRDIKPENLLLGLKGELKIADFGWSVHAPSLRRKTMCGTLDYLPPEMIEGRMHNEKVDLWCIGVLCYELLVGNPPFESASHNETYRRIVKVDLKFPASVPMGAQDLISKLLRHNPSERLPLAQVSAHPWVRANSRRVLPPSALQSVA
# Procedure: as §1
# [3] = target: CDK18/CyclinY (Homo sapiens (Human), UniProt Q07002)
# Procedure: as §1
# [4] = target: CHK1 (Homo sapiens (Human), UniProt O14757)
# Procedure: as §1
# [5] = target: DDR1 (Homo sapiens (Human), UniProt Q08345); settings: for inhibition at 1 µM: 1 uM Compound C1, DDR1
# Procedure: as §1
# [6] = target: EGFR (Homo sapiens (Human), UniProt P00533)
# Procedure: as §1
# [7] = target: IGF1R (Homo sapiens (Human), UniProt P08069)
# Procedure: as §1
# [8] = target: ITK (Homo sapiens (Human), UniProt Q08881)
# ITK, sequence (Q08881 whole entry, species assumed): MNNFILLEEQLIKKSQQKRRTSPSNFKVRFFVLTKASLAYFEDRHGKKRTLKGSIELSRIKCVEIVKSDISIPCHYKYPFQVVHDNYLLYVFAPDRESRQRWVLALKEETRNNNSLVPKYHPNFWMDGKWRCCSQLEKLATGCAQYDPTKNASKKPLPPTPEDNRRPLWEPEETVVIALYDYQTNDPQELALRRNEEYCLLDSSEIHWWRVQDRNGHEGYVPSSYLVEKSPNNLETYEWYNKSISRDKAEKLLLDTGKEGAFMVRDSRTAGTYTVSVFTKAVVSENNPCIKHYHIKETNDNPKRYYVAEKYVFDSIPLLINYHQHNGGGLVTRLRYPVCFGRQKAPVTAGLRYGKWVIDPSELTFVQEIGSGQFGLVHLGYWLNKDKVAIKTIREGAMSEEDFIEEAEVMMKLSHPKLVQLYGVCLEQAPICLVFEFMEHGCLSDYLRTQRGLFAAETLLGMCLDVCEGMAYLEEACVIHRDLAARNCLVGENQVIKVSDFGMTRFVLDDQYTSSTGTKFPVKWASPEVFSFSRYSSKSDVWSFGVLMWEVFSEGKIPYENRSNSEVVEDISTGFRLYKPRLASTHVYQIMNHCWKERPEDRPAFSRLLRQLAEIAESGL
# Procedure: as §1
# [9] = target: KDR (Homo sapiens (Human), UniProt P35968)
# KDR, sequence (P35968 20-1356, species assumed): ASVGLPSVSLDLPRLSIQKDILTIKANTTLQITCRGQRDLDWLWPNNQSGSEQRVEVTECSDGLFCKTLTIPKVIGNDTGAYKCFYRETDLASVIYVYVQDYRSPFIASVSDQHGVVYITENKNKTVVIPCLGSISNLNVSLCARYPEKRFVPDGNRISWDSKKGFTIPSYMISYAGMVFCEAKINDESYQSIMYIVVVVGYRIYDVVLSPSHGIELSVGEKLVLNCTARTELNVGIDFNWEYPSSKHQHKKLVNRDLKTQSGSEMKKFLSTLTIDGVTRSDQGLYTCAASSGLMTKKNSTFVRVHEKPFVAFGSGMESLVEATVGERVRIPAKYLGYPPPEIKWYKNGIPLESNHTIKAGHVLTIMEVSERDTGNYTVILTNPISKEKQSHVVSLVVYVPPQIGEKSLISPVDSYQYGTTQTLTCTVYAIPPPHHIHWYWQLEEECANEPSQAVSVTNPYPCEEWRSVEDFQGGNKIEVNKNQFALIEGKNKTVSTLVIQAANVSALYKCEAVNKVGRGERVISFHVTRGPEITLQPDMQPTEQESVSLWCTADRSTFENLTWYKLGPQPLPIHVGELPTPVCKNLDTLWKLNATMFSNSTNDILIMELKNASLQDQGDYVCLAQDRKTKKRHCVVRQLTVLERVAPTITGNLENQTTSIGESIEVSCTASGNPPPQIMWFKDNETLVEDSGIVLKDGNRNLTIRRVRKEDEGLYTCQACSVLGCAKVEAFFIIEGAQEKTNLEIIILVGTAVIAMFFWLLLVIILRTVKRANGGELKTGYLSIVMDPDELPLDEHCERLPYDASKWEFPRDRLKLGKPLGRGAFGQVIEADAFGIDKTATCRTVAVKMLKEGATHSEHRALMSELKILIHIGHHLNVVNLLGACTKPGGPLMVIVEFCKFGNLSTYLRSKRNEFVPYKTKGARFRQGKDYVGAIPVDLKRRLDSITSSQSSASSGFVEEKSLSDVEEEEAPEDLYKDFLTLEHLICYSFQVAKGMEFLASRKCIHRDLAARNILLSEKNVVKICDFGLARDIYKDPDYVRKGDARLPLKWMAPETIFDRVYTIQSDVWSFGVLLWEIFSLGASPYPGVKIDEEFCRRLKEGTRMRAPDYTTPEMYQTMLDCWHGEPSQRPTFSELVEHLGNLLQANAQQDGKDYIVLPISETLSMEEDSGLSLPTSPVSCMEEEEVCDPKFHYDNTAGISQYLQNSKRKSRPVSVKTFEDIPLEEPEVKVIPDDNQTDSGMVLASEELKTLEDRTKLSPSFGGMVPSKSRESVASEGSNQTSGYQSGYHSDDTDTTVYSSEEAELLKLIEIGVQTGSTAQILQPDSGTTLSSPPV
# Procedure: as §1
# [10] = target: PAK2 (Homo sapiens (Human), UniProt Q13177)
# Procedure: as §1
# [11] = target: PDGFRα (Homo sapiens (Human), UniProt P16234)
# PDGFRα, sequence (P16234 24-1089, species assumed): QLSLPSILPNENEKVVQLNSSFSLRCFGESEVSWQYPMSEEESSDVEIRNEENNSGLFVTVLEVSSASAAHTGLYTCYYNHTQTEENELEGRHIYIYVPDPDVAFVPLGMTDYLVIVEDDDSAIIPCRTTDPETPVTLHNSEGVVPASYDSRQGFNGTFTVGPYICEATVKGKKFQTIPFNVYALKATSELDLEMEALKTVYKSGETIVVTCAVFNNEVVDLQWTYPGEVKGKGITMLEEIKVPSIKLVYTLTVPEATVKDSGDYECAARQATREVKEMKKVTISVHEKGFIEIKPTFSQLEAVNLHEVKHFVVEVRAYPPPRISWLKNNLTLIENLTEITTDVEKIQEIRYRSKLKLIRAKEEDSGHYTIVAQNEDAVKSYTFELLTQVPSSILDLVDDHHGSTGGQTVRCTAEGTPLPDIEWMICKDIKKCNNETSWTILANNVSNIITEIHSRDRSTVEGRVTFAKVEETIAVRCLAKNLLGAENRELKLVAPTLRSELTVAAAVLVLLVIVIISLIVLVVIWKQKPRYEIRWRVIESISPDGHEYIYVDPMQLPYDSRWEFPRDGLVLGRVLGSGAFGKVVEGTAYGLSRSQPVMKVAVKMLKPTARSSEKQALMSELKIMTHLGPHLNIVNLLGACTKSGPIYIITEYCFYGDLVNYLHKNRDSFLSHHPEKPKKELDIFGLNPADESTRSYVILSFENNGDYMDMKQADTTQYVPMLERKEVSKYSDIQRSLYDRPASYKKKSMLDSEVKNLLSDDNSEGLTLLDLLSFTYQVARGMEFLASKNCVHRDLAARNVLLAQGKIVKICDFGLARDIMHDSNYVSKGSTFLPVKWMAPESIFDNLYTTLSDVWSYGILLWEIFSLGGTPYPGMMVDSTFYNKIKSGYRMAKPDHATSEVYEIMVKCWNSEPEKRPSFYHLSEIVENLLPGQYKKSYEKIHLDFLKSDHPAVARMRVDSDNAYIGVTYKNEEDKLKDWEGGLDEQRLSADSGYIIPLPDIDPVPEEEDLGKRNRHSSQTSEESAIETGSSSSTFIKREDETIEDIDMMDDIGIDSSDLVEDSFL
# Procedure: as §1
# [12] = target: PIM1 (Homo sapiens (Human), UniProt P11309)
# PIM1, sequence (P11309 whole entry, species assumed): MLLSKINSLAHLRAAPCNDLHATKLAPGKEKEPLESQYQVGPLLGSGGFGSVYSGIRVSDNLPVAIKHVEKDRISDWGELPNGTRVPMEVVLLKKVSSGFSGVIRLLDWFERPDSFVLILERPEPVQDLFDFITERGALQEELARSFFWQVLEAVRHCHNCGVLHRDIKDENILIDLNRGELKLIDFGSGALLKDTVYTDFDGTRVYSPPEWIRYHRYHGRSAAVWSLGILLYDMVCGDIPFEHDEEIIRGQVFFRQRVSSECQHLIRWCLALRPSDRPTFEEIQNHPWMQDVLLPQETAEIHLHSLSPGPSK
# Procedure: as §1
# [13] = target: PKACα (Homo sapiens (Human), UniProt P17612)
# Procedure: as §1
# [14] = target: PLK1 (Homo sapiens (Human), UniProt P53350)
# Procedure: as §1
# [15] = target: RSK1 (Homo sapiens (Human), UniProt Q15418)
# RSK1, sequence (Q15418 whole entry, species assumed): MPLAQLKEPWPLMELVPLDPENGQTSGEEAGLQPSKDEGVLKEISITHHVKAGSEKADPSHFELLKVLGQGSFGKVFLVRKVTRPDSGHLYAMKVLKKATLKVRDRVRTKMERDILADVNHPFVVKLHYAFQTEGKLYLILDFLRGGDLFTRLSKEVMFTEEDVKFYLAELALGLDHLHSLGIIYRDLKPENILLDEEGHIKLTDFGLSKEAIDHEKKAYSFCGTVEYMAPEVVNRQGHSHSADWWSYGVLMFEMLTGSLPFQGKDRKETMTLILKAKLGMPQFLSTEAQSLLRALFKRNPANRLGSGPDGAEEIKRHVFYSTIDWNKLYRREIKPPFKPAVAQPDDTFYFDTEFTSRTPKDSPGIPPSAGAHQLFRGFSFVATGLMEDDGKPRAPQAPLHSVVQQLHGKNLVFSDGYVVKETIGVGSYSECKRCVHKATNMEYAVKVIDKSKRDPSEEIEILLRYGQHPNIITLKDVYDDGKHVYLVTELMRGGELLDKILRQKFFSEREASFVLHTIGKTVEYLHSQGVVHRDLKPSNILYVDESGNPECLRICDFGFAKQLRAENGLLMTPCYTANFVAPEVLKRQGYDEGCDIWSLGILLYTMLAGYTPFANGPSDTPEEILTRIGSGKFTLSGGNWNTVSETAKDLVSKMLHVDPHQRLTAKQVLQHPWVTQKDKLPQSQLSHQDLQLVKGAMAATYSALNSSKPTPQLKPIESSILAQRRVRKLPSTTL
# Procedure: as §1
# [16] = target: SGK (Homo sapiens (Human), UniProt O00141)
# Procedure: as §1
# [17] = target: SRC (Homo sapiens (Human), UniProt P12931)
# Procedure: as §1
# [18] = target: SYK (Homo sapiens (Human), UniProt P43405)
# Procedure: as §1
# [19] = target: TSSK1 (Homo sapiens (Human), UniProt Q9BXA7)
# Procedure: as §1
# [20] = target: p38α (Homo sapiens (Human), UniProt Q16539)
# p38α, sequence (Q16539 whole entry): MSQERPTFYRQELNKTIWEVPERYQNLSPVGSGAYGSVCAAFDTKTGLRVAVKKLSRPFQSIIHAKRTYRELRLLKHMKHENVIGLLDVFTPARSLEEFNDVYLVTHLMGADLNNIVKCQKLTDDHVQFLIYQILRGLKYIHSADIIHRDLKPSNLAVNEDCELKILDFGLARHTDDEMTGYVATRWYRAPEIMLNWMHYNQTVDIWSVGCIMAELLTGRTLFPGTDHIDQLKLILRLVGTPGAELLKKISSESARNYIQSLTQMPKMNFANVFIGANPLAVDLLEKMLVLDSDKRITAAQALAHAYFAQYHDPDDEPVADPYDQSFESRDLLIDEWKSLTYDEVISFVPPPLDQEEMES
# Procedure: as §1
# [21] = target: p70S6K (Homo sapiens (Human), UniProt P23443)
# Procedure: as §1
# [22] = 1 uM Compound C1, read-out: % Inhibition (First measurement)
# [23] = 1 uM Compound C1, read-out: % Inhibition (Second measurement)
# [24] = 1 uM Compound C1, read-out: Average inhibition (%)
smiles,measurement,setting,value
"Cc1ccc(C(=O)Nc2ccccn2)cc1C#Cc1cnc2cc(C3=CCCCC3)cnn12 [Compound C1, 3-{2-[7-(cyclohex-1-en-1-yl)imidazo[1,2-b]pyridazin-3-yl]ethynyl}-4-methyl-N-(pyridin-2-yl)benzamide]",inhibition at 1 µM,[1]; [22],15.1%
same,inhibition at 1 µM,[1]; [23],13.3%
same,inhibition at 1 µM,[1]; [24],14.2%
same,inhibition at 1 µM,[2]; [22],19.7%
same,inhibition at 1 µM,[2]; [23],13.3%
same,inhibition at 1 µM,[2]; [24],16.5%
same,inhibition at 1 µM,[3]; [22],18%
same,inhibition at 1 µM,[3]; [23],2.55%
same,inhibition at 1 µM,[3]; [24],10.3%
same,inhibition at 1 µM,[4]; [22],-10.6%
same,inhibition at 1 µM,[4]; [23],-13.6%
same,inhibition at 1 µM,[4]; [24],-12.1%
same,inhibition at 1 µM,[5]; read-out: % Inhibition (First measurement),99.4%
same,inhibition at 1 µM,[5]; read-out: % Inhibition (Second measurement),99.1%
same,inhibition at 1 µM,[5]; read-out: Average inhibition (%),99.3%
same,Selectivity of DDR1 inhibition in the kinase inhibition profile (in words),[5]; kinase panel,can inhibit DDR1 with higher selectivity
same,inhibition at 1 µM,[6]; [22],-6.86%
same,inhibition at 1 µM,[6]; [23],1.78%
same,inhibition at 1 µM,[6]; [24],-2.54%
same,inhibition at 1 µM,[7]; [22],-0.05%
same,inhibition at 1 µM,[7]; [23],-2.29%
same,inhibition at 1 µM,[7]; [24],-1.17%
same,inhibition at 1 µM,[8]; [22],-3.82%
same,inhibition at 1 µM,[8]; [23],-19.2%
same,inhibition at 1 µM,[8]; [24],-11.5%
same,inhibition at 1 µM,[9]; [22],2.42%
same,inhibition at 1 µM,[9]; [23],1.61%
same,inhibition at 1 µM,[9]; [24],2.01%
same,inhibition at 1 µM,[10]; [22],2.23%
same,inhibition at 1 µM,[10]; [23],12.1%
same,inhibition at 1 µM,[10]; [24],7.17%
same,inhibition at 1 µM,[11]; [22],84.1%
same,inhibition at 1 µM,[11]; [23],84.8%
same,inhibition at 1 µM,[11]; [24],84.4%
same,inhibition at 1 µM,[12]; [22],-3.17%
same,inhibition at 1 µM,[12]; [23],-4.27%
same,inhibition at 1 µM,[12]; [24],-3.72%
same,inhibition at 1 µM,[13]; [22],-4.44%
same,inhibition at 1 µM,[13]; [23],-1.87%
same,inhibition at 1 µM,[13]; [24],-3.15%
same,inhibition at 1 µM,[14]; [22],24.1%
same,inhibition at 1 µM,[14]; [23],20.6%
same,inhibition at 1 µM,[14]; [24],22.4%
same,inhibition at 1 µM,[15]; [22],0.73%
same,inhibition at 1 µM,[15]; [23],-7.9%
same,inhibition at 1 µM,[15]; [24],-3.59%
same,inhibition at 1 µM,[16]; [22],-8.79%
same,inhibition at 1 µM,[16]; [23],-6.61%
same,inhibition at 1 µM,[16]; [24],-7.7%
same,inhibition at 1 µM,[17]; [22],-0.76%
same,inhibition at 1 µM,[17]; [23],-1.13%
same,inhibition at 1 µM,[17]; [24],-0.94%
same,inhibition at 1 µM,[18]; [22],5.21%
same,inhibition at 1 µM,[18]; [23],-2.04%
same,inhibition at 1 µM,[18]; [24],1.59%
same,inhibition at 1 µM,[19]; [22],-15.1%
same,inhibition at 1 µM,[19]; [23],-3.43%
same,inhibition at 1 µM,[19]; [24],-9.28%
same,inhibition at 1 µM,[20]; [22],3.39%
same,inhibition at 1 µM,[20]; [23],-3.27%
same,inhibition at 1 µM,[20]; [24],0.06%
same,inhibition at 1 µM,[21]; [22],0.46%
same,inhibition at 1 µM,[21]; [23],-0.19%
same,inhibition at 1 µM,[21]; [24],0.14%
